Results on 16 compounds are retold here after patent publication US20140073700A1, “[…] ACID DERIVATIVES AND METHODS OF USE THEREOF” (AbbVie Inc., priority 2012, published 2014).

The subject of the assay is IFNγ-Induced NO Production in RAW 264.7 cells. The experiment in a line: Nitric Oxide Suppression Assay (suppression of IFNγ-induced NO production). Format: cell-based. The settings on record: RAW264.7; RAW 264.7 mouse macrophage cells, 20 ng/mL interferon gamma, Griess detection; single curve fit to mean data of n=2-3. The method, then: RAW 264.7, a mouse macrophage cell line, was obtained from American Type Culture Collection (Manassas Va.) and maintained in the log phase of growth in Dulbecco's Modified Eagle's Medium (DMEM), 10% heat inactivated fetal calf serum and 100 units/mL antibiotic-antimycotic (AA). Cells were cultured and maintained in a humidified incubator at 37° C. under 5% CO2 and 95% air. Cells were sub-cultured every 3 days by scraping and were not used beyond passage 20. All cell culture supplies were obtained from Life Technologies (Grand Island, N.Y.).
RAW 264.7 cells were plated 1 day in advance of experiment at a concentration of 80,000 cells/well onto CellBIND® 96 well plates (Corning, N.Y.) in a total volume of 100 μL. The next day, pre-treat cells with compounds (from 3 μM to 0.3 nM serially diluted in a 10 point curve) from a 10× stock by adding 10 μL per well in complete DMEM media containing 10% fetal calf serum. The plates were centrifuged for 3 minutes at 400×g at room temperature followed by 2 hour incubation at 37° C. The cells were then incubated overnight at 37° C. with 10 μL of the insult, interferon gamma (R&D Systems, Minneapolis, Minn.), from a 10× stock for a final concentration of 20 ng/mL. The plates were centrifuged for 3 minutes at 400×g at room temperature followed by 18 hour incubation at 37° C. The following day, transfer 50 μL cell culture supernatant from each well into a clear bottom 96 well plate and follow the instructions from Promega's Griess Detection Kit #G2930 (Madison, Wis.) which involves the addition of 50 μL of the provided sulfanilamide solution for a 5-10 minute incubation at room temperature. Next add 50 μL of the provided N-1-napthylethylenediamine dihydrochloride (NED) solution for a 5-10 minute incubation at room temperature and protected from light. If any air bubbles were introduced into the well, the plates need to be centrifuged for 5 minutes at 400×g at room temperature to avoid interference with absorbance readings. The plates were read for absorbance within 30 minutes with a filter between 520 nm and 550 nm.
For the ability of compounds to suppress the increase in nitric oxide release, the percent maximal intensity of nitric oxide detected in each well was normalized to that induced by the peak value for 20 ng/mL of interferon gamma alone and plotted against the compound concentration to calculate IC50 values and to control for plate-to-plate variability. Concentration-response data were analyzed using GraphPad Prism (San Diego, Calif.); the IC50 values were derived from a single curve fit to the mean data of n=2-3, in duplicates.
All compounds were dissolved in dimethyl sulfoxide at 10 mM stock solutions and tested at a concentration that the dimethyl sulfoxide levels never exceeded 1%.

Consider `CCC(C)CNC(=O)[C@@]1(C)CC[C@]2(C)CC[C@@]3(C)[C@]4(C)CC[C@H]5C(C)(C)C(=O)C(C#N)=C[C@]5(C)C4=CC(=O)[C@]3(O)[C@@H]2C1` (stereo partly drawn) [Example 33, (2S,4aS,6aS,6bR,8aR,12aS,14aS,14bR)-11-cyano-14a-hydroxy-2,4a,6a,6b,9,9,12a-heptamethyl-N-(2-methylbutyl)-10,14-dioxo-1,2,3,4,4a,5,6,6a,6b,7,8,8a,9,10,12a,14,14a,14b-octadecahydropicene-2-carboxamide], for which the midpoint of inhibition, the IC50, lay at 43.7 nM.

On to `CC1(C)C(=O)C(C#N)=C[C@]2(C)C3=CC(=O)[C@]4(O)[C@@H]5C[C@@](C)(C(=O)NCCO)CC[C@]5(C)CC[C@@]4(C)[C@]3(C)CC[C@@H]12` [Example 4, (2S,4aS,6aS,6bR,8aR,12aS,14aS,14bR)-11-cyano-14a-hydroxy-N-(2-hydroxyethyl)-2,4a,6a,6b,9,9,12a-heptamethyl-10,14-dioxo-1,2,3,4,4a,5,6,6a,6b,7,8,8a,9,10,12a,14,14a,14b-octadecahydropicene-2-carboxamide], for which the half-maximal inhibitory concentration (IC50) – broadly, the concentration needed to halve the response being measured – came to 55.4 nM. This IC50 and that of the compound before are within 1.5-fold of each other. For `CC1(C)C(=O)C(C#N)=C[C@]2(C)C3=CC(=O)[C@]4(O)[C@@H]5C[C@@](C)(C(=O)NCCN6CCOCC6)CC[C@]5(C)CC[C@@]4(C)[C@]3(C)CC[C@@H]12` [Example 10, (2S,4aS,6aS,6bR,8aR,12aS,14aS,14bR)-11-cyano-14a-hydroxy-2,4a,6a,6b,9,9,12a-heptamethyl-N-[2-(morpholin-4-yl)ethyl]-10,14-dioxo-1,2,3,4,4a,5,6,6a,6b,7,8,8a,9,10,12a,14,14a,14b-octadecahydropicene-2-carboxamide] the value was 23.9 nM; for `COC(=O)[C@@H]1CCCN1C(=O)[C@@]1(C)CC[C@]2(C)CC[C@@]3(C)[C@]4(C)CC[C@H]5C(C)(C)C(=O)C(C#N)=C[C@]5(C)C4=CC(=O)[C@]3(O)[C@@H]2C1` [Example 24, methyl 1-{[(2S,4aS,6aS,6bR,8aR,12aS,14aS,14bR)-11-cyano-14a-hydroxy-2,4a,6a,6b,9,9,12a-heptamethyl-10,14-dioxo-1,2,3,4,4a,5,6,6a,6b,7,8,8a,9,10,12a,14,14a,14b-octadecahydropicen-2-yl]carbonyl}prolinate], 16.6 nM; for `CCCN(C)C(=O)[C@@]1(C)CC[C@]2(C)CC[C@@]3(C)[C@]4(C)CC[C@H]5C(C)(C)C(=O)C(C#N)=C[C@]5(C)C4=CC(=O)[C@]3(O)[C@@H]2C1` [Example 6, (2S,4aS,6aS,6bR,8aR,12aS,14aS,14bR)-11-cyano-14a-hydroxy-N,2,4a,6a,6b,9,9,12a-octamethyl-10,14-dioxo-N-propyl-1,2,3,4,4a,5,6,6a,6b,7,8,8a,9,10,12a,14,14a,14b-octadecahydropicene-2-carboxamide], 35.5 nM. The compound `CC1(C)C(=O)C(C#N)=C[C@]2(C)C3=CC(=O)[C@]4(O)[C@@H]5C[C@@](C)(C(=O)NC6CCCCC6)CC[C@]5(C)CC[C@@]4(C)[C@]3(C)CC[C@@H]12` [Example 21, (2S,4aS,6aS,6bR,8aR,12aS,14aS,14bR)-11-cyano-N-cyclohexyl-14a-hydroxy-2,4a,6a,6b,9,9,12a-heptamethyl-10,14-dioxo-1,2,3,4,4a,5,6,6a,6b,7,8,8a,9,10,12a,14,14a,14b-octadecahydropicene-2-carboxamide] showed an IC50 of 9.7 nM. `CC1(C)C(=O)C(C#N)=C[C@]2(C)C3=CC(=O)[C@]4(O)[C@@H]5C[C@@](C)(C(=O)NCC#N)CC[C@]5(C)CC[C@@]4(C)[C@]3(C)CC[C@@H]12` [Example 29, (2S,4aS,6aS,6bR,8aR,12aS,14aS,14bR)-11-cyano-N-(cyanomethyl)-14a-hydroxy-2,4a,6a,6b,9,9,12a-heptamethyl-10,14-dioxo-1,2,3,4,4a,5,6,6a,6b,7,8,8a,9,10,12a,14,14a,14b-octadecahydropicene-2-carboxamide]: the IC50 stood at 16.9 nM. For `CC1(C)C(=O)C(C#N)=C[C@]2(C)C3=CC(=O)[C@]4(O)[C@@H]5C[C@@](C)(C(=O)NC6CCOCC6)CC[C@]5(C)CC[C@@]4(C)[C@]3(C)CC[C@@H]12` [Example 18, (2S,4aS,6aS,6bR,8aR,12aS,14aS,14bR)-11-cyano-14a-hydroxy-2,4a,6a,6b,9,9,12a-heptamethyl-10,14-dioxo-N-(tetrahydro-2H-pyran-4-yl)-1,2,3,4,4a,5,6,6a,6b,7,8,8a,9,10,12a,14,14a,14b-octadecahydropicene-2-carboxamide] the value was 17.1 nM; for `COC(=O)[C@]12CCC(C)(C)C[C@H]1[C@H]1C(=O)C=C3[C@@]4(C)C=C(C#N)C(=O)C(C)(C)[C@@H]4CC[C@@]3(C)[C@]1(C)CC2` [bardoxolone methyl, reference compound], 29 nM; for `C[C@H](NC(=O)[C@@]1(C)CC[C@]2(C)CC[C@@]3(C)[C@]4(C)CC[C@H]5C(C)(C)C(=O)C(C#N)=C[C@]5(C)C4=CC(=O)[C@]3(O)[C@@H]2C1)c1ccccc1` [Example 20, (2S,4aS,6aS,6bR,8aR,12aS,14aS,14bR)-11-cyano-14a-hydroxy-2,4a,6a,6b,9,9,12a-heptamethyl-10,14-dioxo-N-[(1S)-1-phenylethyl]-1,2,3,4,4a,5,6,6a,6b,7,8,8a,9,10,12a,14,14a,14b-octadecahydropicene-2-carboxamide], 38.6 nM. Take `COCCNC(=O)[C@@]1(C)CC[C@]2(C)CC[C@]3(C)[C@H](C(=O)C=C4[C@@]5(C)C=C(C#N)C(=O)C(C)(C)[C@@H]5CC[C@]43C)[C@@H]2C1` [Example 34, (2S,4aS,6aR,6bS,8aR,12aS,14aR,14bS)-11-cyano-N-(2-methoxyethyl)-2,4a,6a,6b,9,9,12a-heptamethyl-10,14-dioxo-1,2,3,4,4a,5,6,6a,6b,7,8,8a,9,10,12a,14,14a,14b-octadecahydropicene-2-carboxamide]: the midpoint of inhibition, the IC50, lay at 3 nM. This IC50 lies about 13-fold lower than the previous one. In the case of `Cn1ccc(CNC(=O)[C@@]2(C)CC[C@]3(C)CC[C@@]4(C)[C@]5(C)CC[C@H]6C(C)(C)C(=O)C(C#N)=C[C@]6(C)C5=CC(=O)[C@]4(O)[C@@H]3C2)n1` [Example 12, (2S,4aS,6aS,6bR,8aR,12aS,14aS,14bR)-11-cyano-14a-hydroxy-2,4a,6a,6b,9,9,12a-heptamethyl-N-[(1-methyl-1H-pyrazol-3-yl)methyl]-10,14-dioxo-1,2,3,4,4a,5,6,6a,6b,7,8,8a,9,10,12a,14,14a,14b-octadecahydropicene-2-carboxamide], the IC50 stood at 14.1 nM. Compound `COCCN(C)C(=O)[C@@]1(C)CC[C@]2(C)CC[C@@]3(C)[C@]4(C)CC[C@H]5C(C)(C)C(=O)C(C#N)=C[C@]5(C)C4=CC(=O)[C@]3(O)[C@@H]2C1` [Example 28, (2S,4aS,6aS,6bR,8aR,12aS,14aS,14bR)-11-cyano-14a-hydroxy-N-(2-methoxyethyl)-N,2,4a,6a,6b,9,9,12a-octamethyl-10,14-dioxo-1,2,3,4,4a,5,6,6a,6b,7,8,8a,9,10,12a,14,14a,14b-octadecahydropicene-2-carboxamide] showed an IC50 of 17.4 nM. This IC50 and that of the compound before are within 1.5-fold of each other. `CCC(O)CNC(=O)[C@@]1(C)CC[C@]2(C)CC[C@@]3(C)[C@]4(C)CC[C@H]5C(C)(C)C(=O)C(C#N)=C[C@]5(C)C4=CC(=O)[C@]3(O)[C@@H]2C1` (stereo partly drawn) [Example 14, (2S,4aS,6aS,6bR,8aR,12aS,14aS,14bR)-11-cyano-14a-hydroxy-N-(2-hydroxybutyl)-2,4a,6a,6b,9,9,12a-heptamethyl-10,14-dioxo-1,2,3,4,4a,5,6,6a,6b,7,8,8a,9,10,12a,14,14a,14b-octadecahydropicene-2-carboxamide]: the IC50 came to 53.7 nM.

For `CC(C)CNC(=O)[C@@]1(C)CC[C@]2(C)CC[C@@]3(C)[C@]4(C)CC[C@H]5C(C)(C)C(=O)C(C#N)=C[C@]5(C)C4=CC(=O)[C@]3(O)[C@@H]2C1` [Example 32, (2S,4aS,6aS,6bR,8aR,12aS,14aS,14bR)-11-cyano-14a-hydroxy-N-isobutyl-2,4a,6a,6b,9,9,12a-heptamethyl-10,14-dioxo-1,2,3,4,4a,5,6,6a,6b,7,8,8a,9,10,12a,14,14a,14b-octadecahydropicene-2-carboxamide], inhibition was half-maximal at 8.8 nM (IC50). `COC(=O)[C@@]1(C)CC[C@]2(C)CC[C@]3(C)[C@H](C(=O)C=C4[C@@]5(C)C=C(C#N)C(=O)C(C)(C)[C@@H]5CC[C@]43C)[C@@H]2C1` [Example 2, (2S,4aS,6aR,6bS,8aR,12aS,14aR,14bS)-methyl 11-cyano-2,4a,6a,6b,9,9,12a-heptamethyl-10,14-dioxo-1,2,3,4,4a,5,6,6a,6b,7,8,8a,9,10,12a,14,14a,14b-octadecahydropicene-2-carboxylate] yielded an IC50 of 201 nM.
